{"source": "patent US7001770B1", "about": "“Calpain inhibitors and their applications” (priority 1998, dated 2006)", "key": {"HLF cells": {"system": "HLF cells", "assay": "Apoptosis by annexin V-FITC staining, flow cytometry", "format": "cell-based", "details": "for Percent Annexin V Positive Staining: 26 hours post treatment", "description": "P53 was administered to the cells by the use of the replication defective adenoviral vector ACN53 described in Wills, et al., supra. The effect of varying concentrations of rAd-p53 (from […] to 2×10^9 rAd-p53 particles/ml of solution) was investigated in combination with CI-1 in a range of 5–20 μm. The effects of individual and combination treatment was determined in the in DLD1, RKO, HLF and SK-Hep1 cells was investigated in substantial accordance with the teaching of Examples 2 and 3 herein. The percentage of apoptotic cells was determined at 17 hours post treatment (with the exception of U87 cells (24 hours) and HeLa cells (68 hours)) with annexin V positive staining. The results are presented in graphical format in FIG. 3 of the attached drawings. In brief, the results were as follows:\nTo quantitate the increased efficacy of rAd-p53 induced cell killing in tumor cell lines in response to CI-1 treatment, HLF cells were infected with increasing concentrations of rAd-p53 with or without 10 μM CI-1, and assayed for percentage apoptotic cells by annexin V-FITC staining 42 hours post-treatment in substantial accordance with the teaching of Example 3 herein. […] No increase in annexin V-FITC positive cells was detected at 1×10^5 particles/ml rAd-p53 with or without 10 μM CI-1. At 1×10^6 particles/ml rAd-p53, the percentage apoptotic cells without CI-1 was 14%, while 40% of annexin V positive cells was detected when cell were treated with 10 μM CI-1. At a concentration of 1×10^7 ACN53 particles/ml, 17% annexin V positive without and 63% with 10 μM CI-1 was detected. At 1×10^8 particles/ml, 52% were annexin V positive without and 70% positive with inhibitor treatment. At a dose of 1×10^9 particles of rAd-p53, however, the percentage annexin V positive was about the same for both 77% without and 74% with 10 μM CI-1. […] concentration of rAd-p53 was sufficient to induce approximately 50% cell death, while only a 1×10^7 particle/ml concentration rAd-p53 was needed to induce approximately the same percentage of cell death when 10 μM CI-1 as added.\nThe effect of an inhibitor of μ-calpains, CI-1 (N-acetyl-leu-leu-norleucinal), was investigated for its ability to enhance p53 mediated apoptosis in tumor cell lines having p53+ and p53− status listed in Table1. Each cell line was treated with 5–50 μM CI-1 for 17–26 hours. To detect a G0/G1 block, bromodeoxyuridine (BrdU) incorporation followed by flow cytometric analysis was done 17 hours post-treatment as described in Example 4 herein. […] The results of these experiments are presented in FIGS. 1 and 2 of the attached drawings. In FIG. 1, each point on the graph represents percentage annexin V positive after background percentage (DMF alone) was subtracted.\nAn aliquot containing approximately 1×10^6 cells of each type was placed in a T-225 flask. The effect of varying concentrations of rAd-p53 (from 1×10^7 to 2×10^9ACN53 particles/ml of solution) was investigated in combination with CI-1 in a range of 5–20 μM. In each instance, the cell line was infected with 1×10^7–1×10^9 particles/ml of cell culture with the ACN53 using the empty cassette virus (ZZCB) as a control. In each instance, the cells were exposed to the virus for a period of one hour. At the end of this time, the virus was washed off the from the cells and fresh media containing an appropriate concentration of CI-1 was added.\nHLF cells were infected at increasing log concentrations of rAd-p53 ranging from 1×10^5 to 1×10^9 for one hour at which time virus was washed off and replaced with fresh media (viral infection with no treatment) or with 10 μM calpain inhibitor 1. Cells were assayed for apoptosis by annexin V-FITC staining at 24 and 42 hours post-infection.\nCI-1 was obtained from Boehringer-Mannheim Biochemicals (Indianapolis, Ind.). The CI-1 containing media was prepared as follows. CI-1 was diluted in dimethylformamide (DMF) to a concentration of 33.3 μM/μl. […]"}, "proteasome": {"system": "proteasome", "details": "below 50 μM primarily an inhibitor of calpain; cited from earlier work"}, "CTL response": {"system": "CTL response", "assay": "In vivo CTL response to recombinant adenoviral vector (51Cr release)", "set-up": "species or system C57BL/6 mice", "details": "for CTL response to the adenoviral vector: 60 mg/Kg or 120 mg/Kg calpain inhibitor 1, 9×10^9 particles/animal iv, spleens day 10", "description": "FIG. 11 is a graphical results of the cytotoxicity assay of CTL against ACN53 transduced EL-4 targets in C57/B16 mice injected with 60 mg/Kg (A) or 120 mg/Kg (♦) calpain inhibitor 1 in combination with ACN53 as more fully described in Example 7 herein. Percent lysis is plotted on the vertical axis and time on the horizontal axis. The ACN53 alone is represented by the circles (●) and the naive control level is represented by the squares (▪).\nThe applicants hypothesized that the combined effect on MHC Class 1 presentation and apoptosis of non-transduced will reduce the immune response to the viral vectors. This was confirmed in a in vivo mouse model in substantial accordance with the teaching of example […] herein. The results are shown in the FIG. 8 of the attached drawings.\nC57BU6 mice (2 mice per dose) were injected intravenously with 9×10^9 particles/animal (iv/200 μl) of a recombinant adenoviral vector encoding the βgal reporter gene under control of the CMV promoter. Naive mice were employed as controls. The spleens were harvested at day 10 for immunological analysis. Livers were harvested for analysis of β-gal transgene expression. Cells were be dispersed to a single cell suspension and washed 3 times. The cells were be resuspended complete RPMI-10 (RPMI+10% FCS, 2ME (5 μM), glutamine, Na pyruvate, Pen/Strep). Responder CTL cells were seeded in 24-well plates at 8×10^6 cells per well in 1.5 ml RPMI-5%. The responder CTL cells were restimulated by adding syngeneic (C57BL/6) spleen cells that were transduced for 6 hours with 2×10^10 BGCG particles/ml and then mitomycin treated to inhibit proliferation and/or activation of stimulator cell populations. The responder CTL were co-cultured with the stimulator cells at 37° C. in a humidified incubator for seven days. […] The Effector CTL cells were harvested, washed 2 times and counted to enumerate the CTL effector cells. […] The Effector CTL cells were co-cultivated with the target cells for 6 hours and the specific ^51Cr release were determined by counting harvested supernates (100 μl) in the γ counter."}}, "note": "Square brackets hold non-standard residues; d marks the D form. Peptide text beside a SMILES is read from it. Nle = CCCC[C@H](N)C(=O)O"}
{"smiles": "CCCC[C@@H](C=O)NC(=O)[C@H](CC(C)C)NC(=O)[C@H](CC(C)C)NC(C)=O", "note": "[CI-1, N-acetyl-leu-leu-norleucinal] (Ac-Leu-Leu-[Nle]-aldehyde)", "values": [{"measurement": "Percentage of Cells Undergoing Apoptosis", "setting": "HLF cells; 10 μM CI-1, 17 hours post treatment", "result": 7, "unit": "%"}, {"measurement": "annexin V staining", "setting": "HLF cells; 10 μM CI-1 alone, 42 hours post-treatment", "result": 3, "unit": "%"}, {"measurement": "Percent Annexin V Positive Staining", "setting": "HLF cells; CI-1 10 μM", "result": 27, "unit": "%"}, {"measurement": "Percent Annexin V Positive Staining", "setting": "HLF cells; CI-1 20 μM", "result": 27, "unit": "%"}, {"measurement": "Percent Annexin V Positive Staining", "setting": "HLF cells; CI-1 30 μM", "result": 33, "unit": "%"}, {"measurement": "Percent Annexin V Positive Staining", "setting": "HLF cells; CI-1 40 μM", "result": 20, "unit": "%"}, {"measurement": "Percent Annexin V Positive Staining", "setting": "HLF cells; CI-1 50 μM", "result": 21, "unit": "%"}, {"measurement": "decrease in the particles/ml of rAd-p53 needed to induce approximately 50% cell death", "setting": "HLF cells; treatment with 10 μM CI-1 at 42 hours", "result": "approximately two log decrease"}, {"measurement": "concentration above which CI-1 inhibits proteasome function", "setting": "proteasome", "result": "above 50 μM"}, {"measurement": "CTL response to the adenoviral vector", "setting": "CTL response", "result": "significant inhibition"}, {"measurement": "CTL response to the adenoviral vector", "setting": "CTL response; listed as calpain inhibitor 1", "result": "substantially reduced"}, {"measurement": "relative number of CTL lytic-units (effector to target ratio giving 25% killing)", "setting": "CTL response; treatment with calpain inhibitor CI-1, BGCG injected mice", "result": "greater than a five-fold decrease"}]}
